Here are results for 2 compounds from publication PMC8777605 (Pharmaceuticals, 2021).

Data set [1] relates to SARS-CoV-2 gamma strain (P1, B.1.1.28). Description: microbe, parasite or virus in culture. The note with it: Severe acute respiratory syndrome coronavirus 2, Calu-3, 48 h.
Data set [2] shares this test system.
The nature of data set [3]: Cytotoxic assay. The format is cell-based. The following applies: African green monkey, table title says Calu-3 cells, method says Vero cells. The procedure: All experiments were carried out at least three independent times and each data was analyzed from Prism GraphPad software 8.0 (Windows GraphPad Software, San Diego, CA, USA). The results were presented as mean ± standard deviation (SD).

The test system of data set [4] is human platelet-poor plasma clotting. Description: Plasma clotting time (fibrin formation). The note with it: three concentrations of ATV, Figure S3. Here is the method:
Human blood samples were collected from healthy donors in 3.8% trisodium citrate (9:1, v/v), and platelet-poor plasma was obtained by centrifugation at 3000 rpm for 10 min. […] Time for clot formation was recorded in triplicates.

Data set [5] concerns the target T1, SARS-CoV-2 main protease (M^pro) (Severe acute respiratory syndrome coronavirus 2, UniProt P0DTD1).
T1 construct: purchased BPS Bioscience #79955-1
Kind of data set: biochemical. Here is the method: (§1) Fluorescence signal was measured at an emission wavelength of 460 nm with excitation at 360 nm in a GloMax® (Promega, Madison, WI, USA) plate reader. Morrison’s inhibitory constant (Ki) was calculated by non-linear regression using GraphPad Prism 9. […] After fluorescence quantification, the Michaelis–Menten constant (Km) and maximum velocity (Vmax) were calculated by non-linear regression using GraphPad Prism 9. The value was presented as mean ± standard deviation (SD).

Data set [6] can be described thus: Pharmacokinetics in plasma and lungs after oral dosing. The format is in vivo, Swiss–Webster mice. The note with it: mice, 60 mg/kg oral. The procedure:
Each treatment group had five animals. After these periods of times, total blood and lungs were collected. Plasma was obtained by blood centrifugation at 8000× g for 15 min. Time zero was obtained by analyzing the matrix pool (blood plasma) of untreated animals. The pharmacokinetic parameters of half-life (t1/2, h), time until maximum concentration is reached (tmax, h), maximum compound concentration (Cmax, ng/mL) and area under the curve (AUC, h.ng/mL) were determined. The experiments performed in this section were approved by the Committee on the Use of Laboratory Animals of the Oswaldo Cruz Foundation (CEUA-FIOCRUZ, license L003/21).

Data set [7] deals with SARS-CoV-2 B.1 lineage. Description: microbe, parasite or virus in culture. The format is cell-based.
In data set [8] the test system is SARS-CoV-2 gamma strain. The class given is in vivo, K18-hACE2 mice.
Data set [9] concerns the target T2, SARS-CoV-2 papain-like protease (PL^pro) (Severe acute respiratory syndrome coronavirus 2, UniProt P0DTD1).
T2 construct: purchased BPS Bioscience #79995-1
Description: SARS-CoV-2 PL^pro enzymatic assay (BPS Bioscience kit). The format is biochemical. The procedure: as §1

Entries after “also recorded” stand apart in the source; their conditions may differ. Where two headings read alike, the source gives them in different places.

Consider `CCC(CC)COC(=O)[C@H](C)N[P@](=O)(OC[C@H]1O[C@@](C#N)(c2ccc3c(N)ncnn23)[C@H](O)[C@@H]1O)Oc1ccccc1` [RDV, remdesivir], for which the midpoint of the response in data set [1], the EC50, lay at 113 ± 10 nM. Besides, in data set [2], the “SI (CC50/EC50)” value came out at 4530. In addition, it took 512000 ± 30000 nM to reach half-maximal cytotoxicity in [3] (CC50 at 3 days).

In the case of `COC(=O)N[C@H](C(=O)N[C@@H](Cc1ccccc1)[C@@H](O)CN(Cc1ccc(-c2ccccn2)cc1)NC(=O)[C@@H](NC(=O)OC)C(C)(C)C)C(C)(C)C` [ATV, atazanavir], the Anti-clotting activity entry in [4] is on record as “could not prevent hemorrhage as an anti-clotting agent”. The affinity in [5], expressed as Ki, was 703 ± 79 nM. Besides, in [5] (2.5 μM ATV versus absence), the “Increase of M^pro's Km by the inhibitor” value was “more than sixfold”. The “Inhibition profile (mechanism)” value in data set [5] (Vmax not different, Km increased) was “competitive inhibition profile”. Moreover, the “Maximum velocity (Vmax) of M^pro” value in data set [5] (in the presence of 2.5 μM ATV, substrate 0–100 μM) was found to be 24.94 ± 3.70 µM/min. In addition, the midpoint of the response in data set [1], the EC50, lay at 399 ± 20 nM. Also, in [6] (Swiss-Webster, mouse, plasma), the AUC (usually concentration integrated over time) amounted to 14300 ng·h/mL; the Cmax (as a rule, the highest concentration seen after dosing) is 7430 ng/mL; the Tmax (usually the time from dosing to the highest level) was determined as 1 h; the half-life (in general, how long it takes for the measured level to halve) is 9.9 h. Moreover, the “Distribution to the lung” value in data set [6] (AUC lung versus plasma) was “concentrated in the lung”. Also, the half-maximal cytotoxic concentration (CC50) – broadly, the concentration that lowers cell viability or growth by half – at 3 days in data set [3] was determined as 312000 ± 8000 nM. In [7], the EC50 – broadly, the concentration giving half of the maximal effect – worked out at 321 ± 16 nM. In [7] (Severe acute respiratory syndrome coronavirus 2, Calu-3, 48 h), this compound had an EC50 of 490 ± 20 nM. Moreover, in data set [8] (60 mg/kg oral daily), the “Body weight, treated versus untreated infected mice” value is on record as “not a statical difference”; the “Lung injury (hemorrhage, shrinking of lobe, bronchiole and alveoli), histology” value was “reduced”; the “SARS-CoV-2-induced IL-6 levels in the BAL and in the lungs” value is “reduced”. Besides, in data set [8] (60 mg/kg oral daily, compared to untreated mice), the “Levels of IL-6, TNF-a, KC and PF4 in the BAL” value was “lower levels”. Further, in data set [8] (mouse, in vivo), the “Animal survival (in words)” value is given as “statistically significant increase”; the “Cell death (LDH activity) in BAL” value is recorded as “significantly decreased”; the Enhancement of survival is 30%; the “Polymorphonuclear and mononuclear cell counts in BAL” value is recorded as “significantly decreased”. Further, the “SARS-CoV-2 RNA levels in BAL” value in data set [8] (mouse, in vivo) is recorded as “significantly decreased”. The “Inhibition of PL^pro (in words)” value in [9] (0–10 μM) is reported as “did not inhibit; also recorded: above the threshold of in vitro inhibition”. In addition, the Ki (commonly a dissociation constant, usually derived from enzyme kinetics or from competition with a known ligand) in [9] (100 nM PL^pro, 25 μM substrate, 45–60 min, 0–10 μM inhibitor, read-out: Morrison's inhibitory constant (Ki)) amounted to 9870 nM.
